In US12441757B2, “Platform for screening NAD+ binding proteins in a cellular context” (OREGON HEALTH & SCIENCE UNIVERSITY, priority 2020, dated 2025):

How the values were obtained:
PARP-10 = biological target: T1, PARP-10 (Homo sapiens, UniProt Q53GL7); assay: Competition labeling of PARP-10 by 2-ad-BAD; assay type: binding
T1 construct: Full length His6-PARP-1 and His6-SUMO-PARP-10 proteins we expressed and purified; His6 (N); SUMO (N); made in house
T1 sequence (Q53GL7 1-1025): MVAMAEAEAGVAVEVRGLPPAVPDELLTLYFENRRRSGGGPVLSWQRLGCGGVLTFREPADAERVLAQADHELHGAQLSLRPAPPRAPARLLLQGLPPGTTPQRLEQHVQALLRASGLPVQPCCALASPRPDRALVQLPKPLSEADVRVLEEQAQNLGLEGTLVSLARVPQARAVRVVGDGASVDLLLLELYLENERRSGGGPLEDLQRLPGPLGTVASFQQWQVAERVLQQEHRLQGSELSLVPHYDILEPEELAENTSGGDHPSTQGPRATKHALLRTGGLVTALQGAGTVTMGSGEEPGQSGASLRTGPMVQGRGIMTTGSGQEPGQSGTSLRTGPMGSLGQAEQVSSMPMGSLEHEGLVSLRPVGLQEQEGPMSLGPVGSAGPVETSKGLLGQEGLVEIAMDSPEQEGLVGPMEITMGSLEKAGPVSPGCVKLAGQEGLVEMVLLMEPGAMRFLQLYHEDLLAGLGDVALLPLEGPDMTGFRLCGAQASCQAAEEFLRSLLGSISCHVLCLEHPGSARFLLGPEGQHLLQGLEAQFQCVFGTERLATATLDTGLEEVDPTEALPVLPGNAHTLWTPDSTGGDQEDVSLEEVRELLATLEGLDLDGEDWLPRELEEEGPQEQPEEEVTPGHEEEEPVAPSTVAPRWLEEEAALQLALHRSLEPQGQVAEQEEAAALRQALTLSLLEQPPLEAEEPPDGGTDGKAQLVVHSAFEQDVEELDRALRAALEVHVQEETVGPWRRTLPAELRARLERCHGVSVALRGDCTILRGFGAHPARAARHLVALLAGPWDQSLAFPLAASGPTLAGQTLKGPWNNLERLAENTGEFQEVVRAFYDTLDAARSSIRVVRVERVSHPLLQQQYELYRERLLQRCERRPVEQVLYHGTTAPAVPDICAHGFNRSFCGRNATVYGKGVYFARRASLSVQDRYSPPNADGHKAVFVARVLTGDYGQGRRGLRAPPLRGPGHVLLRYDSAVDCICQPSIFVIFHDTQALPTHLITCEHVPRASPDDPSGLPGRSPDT
Text: (§1) FIG. 8. Densitometry analyses of FIG. 3A panels (A,B) comparing the inhibitory effect of nucleotides and (B) panels (C,D) comparing inhibitory effect of PARP inhibitors on PARP-1 and PARP-10 labelling by 2-ad-BAD. TAMRA in-gel fluorescence was normalized to Coomassie staining, except for PARP-1 NAD^+ treated samples where relative to control TAMRA signal is reported due to auto-PARylation induced molecular weight shift and therefore not detectable Coomassie signal at PARP-1 molecular weight of ˜110 kDa. Data are mean±SEM of 3 independent experiments.
(§2) Treatments. Recombinant PARP-1 (250 nM), PARP-10 (250 nM) or AK1 (500 nM; Novus Biologicals) were diluted in 100 mM NaCl, 50 mM HEPES [pH 7.4], 4 mM MgCl2, 0.2 mM TCEP. PARP-1 reactions also contained 10 μg/mL of activated calf thymus DNA (Sigma-Aldrich D4522), unless otherwise noted. In experiments reported in FIG. 2, the samples were treated with 0.1 μM 2-ad-BAD or ad-olaparib for 10 min. In competition experiments reported in FIG. 3 and Figure S3, samples were first treated with 150 μM of indicated nucleotides for 10 minute and then with 0.3 μM 2-ad-BAD for additional 10 min. All treatments occurred at RT. Samples were then kept in the dark or irradiated for 5 min in the RPR-100 Photochemical Reactor (Rayonet) equipped with 350 nm lamps at 4° C.
(§3) Click Chemistry. 25 μL of each sample was mixed with 5 μL of fatty acid free BSA and SDS to give a final Click reaction concentration of 1 mg/mL and 1%, respectively. Click reactions were started by adding 15 μL of PBS based 3× click reaction mix (final 1× concentrations shown): 100 μM Tris[(1-benzyl-1H-1,2,3triazol-4-yl)methyl]amine (TBTA, Click Chemistry Tools), 1 mM CuSO4, 40 μM tetramethylrhodamine (TAMRA)-azide (Click Chemistry Tools), 1 mM Tris(2-carboxyethyl)phosphine hydrochloride (TCEP, Thermo Fisher) and 5% tert-Butyl alcohol to each sample, and let to proceed for 1 h at RT while gently shaking. Reactions were stopped by adding 4× Laemmli sample buffer and boiling at 95° C. for 5 min.
(§4) In gel fluorescence and staining. Samples were loaded to 10 or 12% SDS-polyacrylamide gels and run until the dye front left the gel. In-gel fluorescence was detected with ChemiDoc XRS+ (Biorad) using Rhodamine filter and then the gels were stained with Coomassie blue or Silver using standard protocols.

PARP-1 [1] = biological target: T2, PARP-1 (Homo sapiens, UniProt P09874); conditions: cited from earlier work
T2 construct: Full length His6-PARP-1 and His6-SUMO-PARP-10 proteins we expressed and purified; His6 (N); made in house

PARP-1 [2] = biological target: T2, PARP-1; assay: Competition labeling of PARP-1 by 2-ad-BAD; assay type: binding
Text: as §1, §2, §3, §4

[3] = 150 μM nucleotide, 0.3 μM 2-ad-BAD

T2 sequence (P09874 whole entry): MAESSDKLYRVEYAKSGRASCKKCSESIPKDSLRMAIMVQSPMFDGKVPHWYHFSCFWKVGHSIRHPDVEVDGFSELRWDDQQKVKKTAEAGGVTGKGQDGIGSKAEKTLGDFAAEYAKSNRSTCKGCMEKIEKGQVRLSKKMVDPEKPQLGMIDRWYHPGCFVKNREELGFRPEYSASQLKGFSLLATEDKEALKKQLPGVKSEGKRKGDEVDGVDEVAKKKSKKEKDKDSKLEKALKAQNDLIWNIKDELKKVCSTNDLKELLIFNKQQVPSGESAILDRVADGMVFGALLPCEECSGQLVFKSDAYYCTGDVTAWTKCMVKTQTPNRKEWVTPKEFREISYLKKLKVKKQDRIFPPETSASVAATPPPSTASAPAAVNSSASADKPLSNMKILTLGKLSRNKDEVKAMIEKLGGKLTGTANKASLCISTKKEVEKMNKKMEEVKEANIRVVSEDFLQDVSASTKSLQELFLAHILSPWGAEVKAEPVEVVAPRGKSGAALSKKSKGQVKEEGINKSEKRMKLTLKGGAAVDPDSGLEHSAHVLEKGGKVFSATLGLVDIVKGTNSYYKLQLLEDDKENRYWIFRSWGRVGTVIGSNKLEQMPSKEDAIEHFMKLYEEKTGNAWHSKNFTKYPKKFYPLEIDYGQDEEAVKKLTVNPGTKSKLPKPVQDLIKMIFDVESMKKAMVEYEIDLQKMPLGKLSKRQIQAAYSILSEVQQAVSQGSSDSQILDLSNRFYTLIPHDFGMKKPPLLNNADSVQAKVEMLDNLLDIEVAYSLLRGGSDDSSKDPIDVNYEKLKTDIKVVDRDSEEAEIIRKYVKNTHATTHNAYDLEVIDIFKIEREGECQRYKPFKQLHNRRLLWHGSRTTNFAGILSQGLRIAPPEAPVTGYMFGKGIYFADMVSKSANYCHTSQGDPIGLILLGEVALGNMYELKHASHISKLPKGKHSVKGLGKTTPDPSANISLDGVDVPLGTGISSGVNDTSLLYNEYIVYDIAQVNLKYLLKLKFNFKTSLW

NC(=O)c1cccc([C@@H]2O[C@H](COP(=O)(O)OP(=O)(O)OC[C@H]3O[C@@H](n4cnc5c(N)ncnc54)[C@H](O)[C@@H]3O)[C@@H](O)[C@H]2O)c1 [BAD, benzamide adenine dinucleotide]
block of 2-ad-BAD labeling of PARP-10 by nucleotides (PARP-10; [3]): reduced | dose-dependent block of 2-ad-BAD labeling of PARP-10 (PARP-10; competitor dose series): dose-dependently block the labeling of PARP-10 | DNA dependence of binding to PARP-1 (PARP-1 [1]): DNA-dependent | binding to PARP-1 and inhibition of its enzymatic activity (PARP-1 [1]): binds to PARP-1 and inhibits its enzymatic activity | block of 2-ad-BAD labeling of PARP-1 by nucleotides (PARP-1 [2]; [3]): reduced | dose-dependent block of 2-ad-BAD labeling of PARP-1 (PARP-1 [2]; competitor dose series): dose-dependently block the labeling of PARP-1
